Patent publication US11572369B2, “Bicyclic pyridine compositions and methods of using the same for cancer therapy” (UNIVERSITY OF SOUTH CAROLINA, priority 2019, dated 2023)

How the values were obtained:
Test in all cases: KINOMEscan
Format in all cases: binding
Conditions in all cases: 2000 nM
MEK2 = molecular target: T1, MEK2 (Homo sapiens, UniProt P36507)
T1 construct: purchased DiscoveRx (KINOMEscan scanMAX panel, service)

YSK4 = YSK4 (Homo sapiens, UniProt Q56UN5)
TAOK3 = molecular target: T2, TAOK3 (Homo sapiens, UniProt Q9H2K8)
T2 construct: DNA label (for qPCR read-out); purchased DiscoveRx (KINOMEscan scanMAX panel, contract assay)
T2 sequence (Q9H2K8 whole entry): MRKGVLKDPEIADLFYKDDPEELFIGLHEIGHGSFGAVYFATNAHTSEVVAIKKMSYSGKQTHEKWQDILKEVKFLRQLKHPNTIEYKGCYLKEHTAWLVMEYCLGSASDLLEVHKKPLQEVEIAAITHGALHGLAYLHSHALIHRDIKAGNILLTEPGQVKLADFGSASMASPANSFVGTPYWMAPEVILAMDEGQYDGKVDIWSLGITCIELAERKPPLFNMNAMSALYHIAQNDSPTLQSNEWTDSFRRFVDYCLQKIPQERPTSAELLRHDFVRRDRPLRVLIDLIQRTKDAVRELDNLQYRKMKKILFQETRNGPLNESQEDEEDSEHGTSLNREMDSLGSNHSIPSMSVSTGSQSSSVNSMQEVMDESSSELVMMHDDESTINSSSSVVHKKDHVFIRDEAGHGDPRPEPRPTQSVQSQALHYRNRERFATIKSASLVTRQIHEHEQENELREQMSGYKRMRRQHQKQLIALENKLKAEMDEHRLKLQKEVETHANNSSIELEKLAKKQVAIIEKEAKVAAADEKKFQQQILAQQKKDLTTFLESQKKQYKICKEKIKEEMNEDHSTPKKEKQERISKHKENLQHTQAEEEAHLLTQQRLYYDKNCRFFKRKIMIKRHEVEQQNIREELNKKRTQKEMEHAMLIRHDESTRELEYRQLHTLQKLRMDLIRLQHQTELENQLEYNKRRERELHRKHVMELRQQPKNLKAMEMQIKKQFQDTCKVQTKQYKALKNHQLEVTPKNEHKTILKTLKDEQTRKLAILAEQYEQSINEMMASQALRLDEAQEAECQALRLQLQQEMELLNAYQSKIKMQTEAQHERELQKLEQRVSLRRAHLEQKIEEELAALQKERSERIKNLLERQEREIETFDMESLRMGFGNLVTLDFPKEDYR

PIP5K2B = molecular target: T3, PIP5K2B (Homo sapiens, UniProt P78356)
T3 construct: DNA label (qPCR read-out); purchased KINOMEscan (DiscoveRx) panel

p38-beta = molecular target: T4, p38-beta (Homo sapiens, UniProt Q15759)
T4 construct: purchased DiscoverX (KINOMEscan service)
T4 sequence (Q15759 whole entry): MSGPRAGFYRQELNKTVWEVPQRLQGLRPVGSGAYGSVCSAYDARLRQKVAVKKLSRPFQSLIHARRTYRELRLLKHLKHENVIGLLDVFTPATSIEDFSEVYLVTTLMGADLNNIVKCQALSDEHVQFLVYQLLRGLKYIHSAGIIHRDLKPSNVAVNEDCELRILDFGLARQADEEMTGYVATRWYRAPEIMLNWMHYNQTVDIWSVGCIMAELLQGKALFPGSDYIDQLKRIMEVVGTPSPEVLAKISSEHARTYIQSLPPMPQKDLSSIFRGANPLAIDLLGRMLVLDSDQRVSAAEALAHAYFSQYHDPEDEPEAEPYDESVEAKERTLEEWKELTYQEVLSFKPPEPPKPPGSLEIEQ

CSF1R = molecular target: T5, CSF1R (Homo sapiens, UniProt P07333)
T5 construct: DNA label (for qPCR read-out); purchased DiscoveRx (KINOMEscan scanMAX service)
T5 sequence (P07333 20-972): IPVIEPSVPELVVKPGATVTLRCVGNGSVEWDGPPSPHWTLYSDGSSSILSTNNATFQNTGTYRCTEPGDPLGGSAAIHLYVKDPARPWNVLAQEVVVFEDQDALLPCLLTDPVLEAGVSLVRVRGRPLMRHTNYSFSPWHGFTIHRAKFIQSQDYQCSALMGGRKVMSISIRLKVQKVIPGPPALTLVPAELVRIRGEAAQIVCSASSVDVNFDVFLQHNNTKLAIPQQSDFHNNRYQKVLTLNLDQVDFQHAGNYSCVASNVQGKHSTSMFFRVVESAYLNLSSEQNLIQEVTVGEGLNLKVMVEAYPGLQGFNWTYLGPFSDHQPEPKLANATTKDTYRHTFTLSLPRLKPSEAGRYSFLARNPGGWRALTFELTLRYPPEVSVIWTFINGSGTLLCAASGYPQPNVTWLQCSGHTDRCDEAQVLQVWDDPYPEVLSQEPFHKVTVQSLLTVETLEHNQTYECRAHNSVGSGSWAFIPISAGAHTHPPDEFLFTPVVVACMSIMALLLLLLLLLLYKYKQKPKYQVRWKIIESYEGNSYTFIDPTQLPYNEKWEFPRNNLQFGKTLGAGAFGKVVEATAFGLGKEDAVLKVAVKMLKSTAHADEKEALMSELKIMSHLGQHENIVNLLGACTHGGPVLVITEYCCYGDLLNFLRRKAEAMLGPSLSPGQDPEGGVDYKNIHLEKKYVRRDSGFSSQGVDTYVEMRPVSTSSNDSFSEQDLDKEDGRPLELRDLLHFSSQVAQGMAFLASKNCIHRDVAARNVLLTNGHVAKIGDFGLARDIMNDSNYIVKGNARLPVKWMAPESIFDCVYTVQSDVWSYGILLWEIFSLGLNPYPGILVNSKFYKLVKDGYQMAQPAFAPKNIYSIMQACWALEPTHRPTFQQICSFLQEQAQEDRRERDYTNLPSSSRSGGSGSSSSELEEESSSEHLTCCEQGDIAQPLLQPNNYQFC

NEK7 = molecular target: T6, NEK7 (Homo sapiens, UniProt Q8TDX7)
T6 construct: DNA label (qPCR read-out); purchased KINOMEscan (ScanMAX panel service)
T6 sequence (Q8TDX7 whole entry): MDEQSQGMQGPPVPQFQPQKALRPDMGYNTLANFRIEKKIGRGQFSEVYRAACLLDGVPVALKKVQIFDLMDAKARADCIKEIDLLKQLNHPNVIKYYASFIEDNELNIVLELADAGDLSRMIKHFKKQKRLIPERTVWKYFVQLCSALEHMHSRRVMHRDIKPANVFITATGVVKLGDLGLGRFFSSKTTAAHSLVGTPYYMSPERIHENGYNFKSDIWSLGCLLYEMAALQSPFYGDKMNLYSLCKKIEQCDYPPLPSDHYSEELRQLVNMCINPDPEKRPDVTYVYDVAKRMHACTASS

PIM1 = molecular target: T7, PIM1 (Homo sapiens, UniProt P11309)
T7 construct: DNA label (qPCR read-out); purchased KINOMEscan (DiscoveRx) panel

PRKX = molecular target: T8, PRKX (Homo sapiens, UniProt P51817)
T8 construct: purchased DiscoveRx (KINOMEscan scanMAX panel)
T8 sequence (P51817 whole entry): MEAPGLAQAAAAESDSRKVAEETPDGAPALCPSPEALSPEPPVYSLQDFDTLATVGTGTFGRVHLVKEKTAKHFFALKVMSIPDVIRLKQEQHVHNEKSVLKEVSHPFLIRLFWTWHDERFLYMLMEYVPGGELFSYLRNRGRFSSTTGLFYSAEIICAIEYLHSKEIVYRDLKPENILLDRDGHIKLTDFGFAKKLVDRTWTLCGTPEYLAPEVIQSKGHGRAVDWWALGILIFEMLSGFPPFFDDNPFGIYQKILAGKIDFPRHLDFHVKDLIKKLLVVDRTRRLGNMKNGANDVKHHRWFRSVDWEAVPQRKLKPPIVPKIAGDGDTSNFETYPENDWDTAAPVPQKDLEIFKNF

STK39 = molecular target: T9, STK39 (Homo sapiens, UniProt Q9UEW8)
T9 construct: DNA label (for qPCR read-out); purchased DiscoveRx (KINOMEscan scanMAX panel, contract assay)

MKK7 = molecular target: T10, MKK7 (Homo sapiens, UniProt O14733)
T10 construct: DNA label (qPCR read-out); purchased KINOMEscan scanMAX panel (DiscoveRx)

PLK1 = molecular target: T11, PLK1 (Homo sapiens, UniProt P53350)
T11 construct: purchased DiscoveRx (KINOMEscan scanMAX panel)

NDR2 = molecular target: T12, NDR2 (Homo sapiens, UniProt Q9Y2H1)
T12 construct: DNA label (for qPCR read-out); purchased KINOMEscan scanMAX panel (DiscoveRx)
T12 sequence (Q9Y2H1 whole entry): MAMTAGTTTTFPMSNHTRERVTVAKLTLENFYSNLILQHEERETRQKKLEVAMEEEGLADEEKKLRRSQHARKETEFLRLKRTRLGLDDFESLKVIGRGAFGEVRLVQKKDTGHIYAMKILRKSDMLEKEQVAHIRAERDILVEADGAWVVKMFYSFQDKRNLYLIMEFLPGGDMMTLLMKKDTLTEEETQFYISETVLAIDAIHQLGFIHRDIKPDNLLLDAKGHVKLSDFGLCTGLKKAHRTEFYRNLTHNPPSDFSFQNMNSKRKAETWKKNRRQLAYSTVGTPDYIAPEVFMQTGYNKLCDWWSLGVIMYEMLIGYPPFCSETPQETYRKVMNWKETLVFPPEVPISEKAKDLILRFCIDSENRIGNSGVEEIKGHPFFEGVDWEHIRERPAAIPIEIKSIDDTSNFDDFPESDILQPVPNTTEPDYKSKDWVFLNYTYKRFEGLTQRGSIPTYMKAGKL

HCK = molecular target: T13, HCK (Homo sapiens, UniProt P08631)
T13 construct: DNA label (for qPCR read-out); purchased DiscoveRx (KINOMEscan scanMAX panel, contract assay)

BRK = molecular target: T14, BRK (Homo sapiens, UniProt Q13882)
T14 construct: DNA label (for qPCR read-out); purchased KINOMEscan scanMAX panel (DiscoveRx)
T14 sequence (Q13882 whole entry): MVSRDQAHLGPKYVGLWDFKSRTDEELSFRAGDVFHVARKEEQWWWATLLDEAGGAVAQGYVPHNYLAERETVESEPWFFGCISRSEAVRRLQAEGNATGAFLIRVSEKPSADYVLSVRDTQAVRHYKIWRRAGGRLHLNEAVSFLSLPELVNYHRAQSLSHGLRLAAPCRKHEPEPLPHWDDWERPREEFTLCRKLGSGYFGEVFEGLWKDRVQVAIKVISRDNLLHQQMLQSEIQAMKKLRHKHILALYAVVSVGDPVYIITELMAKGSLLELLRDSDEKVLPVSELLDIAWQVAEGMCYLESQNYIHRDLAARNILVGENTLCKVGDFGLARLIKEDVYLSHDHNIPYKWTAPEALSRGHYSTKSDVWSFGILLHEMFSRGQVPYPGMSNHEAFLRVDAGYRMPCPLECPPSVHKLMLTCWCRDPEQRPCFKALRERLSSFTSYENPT

MLK2 = molecular target: T15, MLK2 (Homo sapiens, UniProt Q02779)
T15 construct: DNA label (qPCR read-out); purchased KINOMEscan scanMAX panel (DiscoveRx)

CDC2L2 = molecular target: T16, CDC2L2 (Homo sapiens, UniProt Q9UQ88)
T16 construct: purchased DiscoverX (KINOMEscan service)

IKK-epsilon = molecular target: T17, IKK-epsilon (Homo sapiens, UniProt Q14164)
T17 construct: DNA label (qPCR read-out); purchased KINOMEscan (DiscoveRx) ScanMAX panel

BTK = molecular target: T18, BTK (Homo sapiens, UniProt Q06187)
T18 construct: DNA label (for qPCR read-out); purchased KINOMEscan scanMAX panel (DiscoveRx)

EGFR(E746-A750del) = molecular target: T19, EGFR(E746-A750del) (Homo sapiens, UniProt P00533, DEL746-750)
T19 construct: purchased DiscoveRx (KINOMEscan scanMAX panel)

ICK = molecular target: T20, ICK (Homo sapiens, UniProt Q9UPZ9)
T20 construct: DNA label (qPCR read-out); purchased KINOMEscan (DiscoveRx) ScanMAX panel

[1] = molecular target: ABL1(Y253F)-phosphorylated (Homo sapiens, UniProt P00519, Y253F)
MLCK = molecular target: T21, MLCK (Homo sapiens, UniProt Q32MK0)
T21 construct: DNA label (qPCR read-out); purchased KINOMEscan scanMAX panel (DiscoveRx)

EPHA5 = molecular target: T22, EPHA5 (Homo sapiens, UniProt P54756)
T22 construct: purchased DiscoveRx (KINOMEscan scanMAX panel)

YSK1 = molecular target: T23, YSK1 (Homo sapiens, UniProt O00506)
T23 construct: purchased KINOMEscan (DiscoveRx) panel service

WEE2 = molecular target: T24, WEE2 (Homo sapiens, UniProt P0C1S8)
T24 construct: purchased KINOMEscan (DiscoveRx) panel service

FLT3(D835Y) = molecular target: T25, FLT3(D835Y) (Homo sapiens, UniProt P36888, D835Y)
T25 construct: purchased DiscoveRx (KINOMEscan scanMAX panel)

PAK3 = molecular target: T26, PAK3 (Homo sapiens, UniProt O75914)
T26 construct: purchased DiscoverX (KINOMEscan service)

GRK2 = molecular target: T27, GRK2 (Homo sapiens, UniProt P25098)
T27 construct: DNA label (for qPCR read-out); purchased DiscoveRx (KINOMEscan scanMAX panel, contract assay)

PIP5K1A = molecular target: T28, PIP5K1A (Homo sapiens, UniProt Q99755)
T28 construct: DNA label (qPCR read-out); purchased KINOMEscan (DiscoveRx) panel
T28 sequence (Q99755 whole entry): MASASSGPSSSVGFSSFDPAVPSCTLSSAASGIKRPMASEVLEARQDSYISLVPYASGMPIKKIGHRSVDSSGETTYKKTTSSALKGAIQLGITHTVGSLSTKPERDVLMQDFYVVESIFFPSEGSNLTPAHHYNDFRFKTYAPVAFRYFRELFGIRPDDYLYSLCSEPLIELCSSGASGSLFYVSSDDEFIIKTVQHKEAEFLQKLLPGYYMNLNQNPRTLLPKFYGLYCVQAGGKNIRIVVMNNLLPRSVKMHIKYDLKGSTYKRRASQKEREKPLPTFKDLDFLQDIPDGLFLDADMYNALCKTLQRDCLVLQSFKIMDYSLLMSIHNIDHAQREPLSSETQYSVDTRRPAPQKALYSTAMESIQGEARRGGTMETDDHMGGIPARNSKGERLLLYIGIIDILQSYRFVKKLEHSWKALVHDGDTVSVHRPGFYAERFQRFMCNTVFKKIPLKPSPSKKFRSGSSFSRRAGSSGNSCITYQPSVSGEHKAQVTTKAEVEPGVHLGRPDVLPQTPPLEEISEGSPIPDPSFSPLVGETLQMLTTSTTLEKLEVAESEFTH

[2] = molecular target: ABL1(H396P)-phosphorylated (Homo sapiens, UniProt P00519, H396P)
MRCKA = molecular target: T29, MRCKA (Homo sapiens, UniProt Q5VT25)
T29 construct: DNA label (qPCR read-out); purchased KINOMEscan scanMAX panel (DiscoveRx)

PRKG1 = molecular target: T30, PRKG1 (Homo sapiens, UniProt Q13976)
T30 construct: purchased DiscoveRx (KINOMEscan scanMAX panel)

BRSK1 = molecular target: T31, BRSK1 (Homo sapiens, UniProt Q8TDC3)
T31 construct: DNA label (for qPCR read-out); purchased KINOMEscan scanMAX panel (DiscoveRx)

FLT3(D835V) = molecular target: T32, FLT3(D835V) (Homo sapiens, UniProt P36888, D835V)
T32 construct: purchased DiscoveRx (KINOMEscan scanMAX panel)

MST2 = molecular target: T33, MST2 (Homo sapiens, UniProt Q13188)
T33 construct: DNA label (for qPCR read-out); purchased KINOMEscan scanMAX panel (DiscoveRx)

DRAK2 = molecular target: T34, DRAK2 (Homo sapiens, UniProt O94768)
T34 construct: DNA label (qPCR read-out); purchased KINOMEscan (DiscoveRx) panel
T34 sequence (O94768 whole entry): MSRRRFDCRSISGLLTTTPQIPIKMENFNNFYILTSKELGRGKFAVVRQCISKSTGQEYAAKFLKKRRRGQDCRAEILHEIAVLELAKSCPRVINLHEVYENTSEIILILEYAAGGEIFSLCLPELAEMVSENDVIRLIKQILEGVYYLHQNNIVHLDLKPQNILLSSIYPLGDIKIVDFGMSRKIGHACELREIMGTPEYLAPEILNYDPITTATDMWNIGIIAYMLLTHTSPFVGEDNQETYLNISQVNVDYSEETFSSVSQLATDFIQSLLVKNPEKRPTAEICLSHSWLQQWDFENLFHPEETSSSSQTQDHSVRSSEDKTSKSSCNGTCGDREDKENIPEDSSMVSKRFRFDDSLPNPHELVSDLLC

| Structure (SMILES) | % Ctrl (MEK2) [% Ctrl] | % Ctrl (YSK4) [% Ctrl] | % Ctrl (TAOK3) [% Ctrl] | % Ctrl (PIP5K2B) [% Ctrl] | % Ctrl (p38-beta) [% Ctrl] | % Ctrl (CSF1R) [% Ctrl] | % Ctrl (NEK7) [% Ctrl] | % Ctrl (PIM1) [% Ctrl] | % Ctrl (PRKX) [% Ctrl] | % Ctrl (STK39) [% Ctrl] | % Ctrl (MKK7) [% Ctrl] | % Ctrl (PLK1) [% Ctrl] | % Ctrl (NDR2) [% Ctrl] | % Ctrl (HCK) [% Ctrl] | % Ctrl (BRK) [% Ctrl] | % Ctrl (MLK2) [% Ctrl] | % Ctrl (CDC2L2) [% Ctrl] | % Ctrl (IKK-epsilon) [% Ctrl] | % Ctrl (BTK) [% Ctrl] | % Ctrl (EGFR(E746-A750del)) [% Ctrl] | further results |
| --- | --- | --- | --- | --- | --- | --- | --- | --- | --- | --- | --- | --- | --- | --- | --- | --- | --- | --- | --- | --- | --- |
| [2H]C([2H])([2H])N(C(=O)c1ccc(N2CCCN(c3ccnc4sc(C(N)=O)c(N)c34)CC2)cc1)C([2H])([2H])[2H] [15u_D6, 3-amino-4-(4-(4-(bis(methyl-d3)carbamoyl)phenyl)-1,4-diazepan-1-yl)thieno[2,3-b]pyridine-2-carboxamide] | 82 | 53 | 73 | 95 | 97 | 95 | 86 | 100 | 95 | 94 | 85 | 89 | 36 | 96 | 99 | 95 | 100 | 100 | 77 | 100 | % Ctrl (ICK): 66 % Ctrl; % Ctrl [1]: 81 % Ctrl; % Ctrl (MLCK): 100 % Ctrl; % Ctrl (EPHA5): 96 % Ctrl; % Ctrl (YSK1): 98 % Ctrl; % Ctrl (WEE2): 88 % Ctrl; % Ctrl (FLT3(D835Y)): 100 % Ctrl; % Ctrl (PAK3): 40 % Ctrl; % Ctrl (GRK2): 70 % Ctrl; % Ctrl (PIP5K1A): 100 % Ctrl; % Ctrl [2]: 77 % Ctrl; % Ctrl (MRCKA): 100 % Ctrl; % Ctrl (PRKG1): 100 % Ctrl; % Ctrl (BRSK1): 97 % Ctrl; % Ctrl (FLT3(D835V)): 14 % Ctrl; % Ctrl (MST2): 84 % Ctrl; % Ctrl (DRAK2): 87 % Ctrl |
| CN(C)C(=O)c1ccc(N2CCCN(c3ccnc4sc(C(N)=O)c(N)c34)CC2)cc1 [15u, 3-amino-4-(4-(4-(dimethylcarbamoyl)phenyl)-1,4-diazepan-1-yl)thieno[2,3-b]pyridine-2-carboxamide] | 88 | 74 | 98 | 92 | 100 | 98 | 100 | 88 | 94 | 93 | 100 | 95 | 99 | 96 | 100 | 100 | 100 | 100 | 81 | 100 | % Ctrl (ICK): 84 % Ctrl; % Ctrl [1]: 100 % Ctrl; % Ctrl (MLCK): 96 % Ctrl; % Ctrl (EPHA5): 89 % Ctrl; % Ctrl (YSK1): 76 % Ctrl; % Ctrl (WEE2): 97 % Ctrl; % Ctrl (FLT3(D835Y)): 46 % Ctrl; % Ctrl (PAK3): 80 % Ctrl; % Ctrl (GRK2): 88 % Ctrl; % Ctrl (PIP5K1A): 100 % Ctrl; % Ctrl [2]: 94 % Ctrl; % Ctrl (MRCKA): 94 % Ctrl; % Ctrl (PRKG1): 88 % Ctrl; % Ctrl (BRSK1): 86 % Ctrl; % Ctrl (FLT3(D835V)): 33 % Ctrl; % Ctrl (MST2): 100 % Ctrl; % Ctrl (DRAK2): 100 % Ctrl |
